Biological target: D(2) dopamine receptor (Rattus norvegicus, UniProt P61169)
Test: Affinity towards Dopamine receptor D2 in rat striatum using [3H]spiperone as radioligand

Sequence of D(2) dopamine receptor (P61169 whole entry): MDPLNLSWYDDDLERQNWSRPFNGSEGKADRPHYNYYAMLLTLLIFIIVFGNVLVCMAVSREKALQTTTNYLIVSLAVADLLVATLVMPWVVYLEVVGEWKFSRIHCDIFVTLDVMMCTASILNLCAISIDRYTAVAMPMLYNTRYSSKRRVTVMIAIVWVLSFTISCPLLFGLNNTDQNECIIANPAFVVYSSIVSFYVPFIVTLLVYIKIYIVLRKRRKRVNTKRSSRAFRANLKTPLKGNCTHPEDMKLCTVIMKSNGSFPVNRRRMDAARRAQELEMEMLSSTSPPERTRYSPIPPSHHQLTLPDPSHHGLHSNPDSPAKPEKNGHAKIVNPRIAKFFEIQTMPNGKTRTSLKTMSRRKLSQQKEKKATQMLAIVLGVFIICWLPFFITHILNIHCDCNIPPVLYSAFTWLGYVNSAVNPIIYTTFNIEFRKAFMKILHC

COc1cc(N)c(Cl)cc1C(=O)NC1CC2CCC(C1)N2C (stereo unspecified) [4-amino-5-chloro-2-methoxy-N-(8-methyl-8-azabicyclo[3.2.1]octan-3-yl)benzamide]
Ki: > 1 µM

— BindingDB's records for doi:10.1021/jm020270n (Dainippon Pharmaceutical, 2003)
